Test results as given in patent publication US9067926B2, “Fluoromethyl-5,6-dihydro-4H-[1,3]OXAZINES” (F. Hoffmann-La Roche AG, priority 2012, dated 2015).

Molecular target: T1, BACE1 (Homo sapiens, UniProt P56817)
T1 construct: endogenous in cells; host or cells: HEK293 APP cells
Experiment: Cellular Aβ-lowering assay (Abeta 40 AlphaLISA)
Assay type: cell-based
Settings: HEK293 APP cells, 18-20 hrs incubation, Aβ 40 in culture supernatant; read-out: BACE1 cell act. Aβ40 IC50
Experimental: Cellular Aβ-Lowering Assay:
The Abeta 40 AlphaLISA Assay can be used. The HEK293 APP cells were seeded in 96 well Microtiter plates in cell culture medium (Iscove's, plus 10% (vv) fetal bovine serum, penicillinstreptomycin) to about 80% confluency and the compounds were added at a 3× concentration in 13 volume of culture medium (final DMSO concentration was kept at 1% vv). After 18-20 hrs incubation at 37° C. and 5% CO2 in a humidified incubator, the culture supernatants were harvested for the determination of Aβ 40 concentrations using Perkin-Elmer Human Amyloid beta 1-40 (high specificity) Kit (Cat# AL275C).
Levels of Aβ 40 in the culture supernatants were calculated as percentage of maximum signal (cells treated with 1% DMSO without inhibitor). The IC50 values were calculated using the Excel XLfit software.

T1 sequence (P56817 46-501): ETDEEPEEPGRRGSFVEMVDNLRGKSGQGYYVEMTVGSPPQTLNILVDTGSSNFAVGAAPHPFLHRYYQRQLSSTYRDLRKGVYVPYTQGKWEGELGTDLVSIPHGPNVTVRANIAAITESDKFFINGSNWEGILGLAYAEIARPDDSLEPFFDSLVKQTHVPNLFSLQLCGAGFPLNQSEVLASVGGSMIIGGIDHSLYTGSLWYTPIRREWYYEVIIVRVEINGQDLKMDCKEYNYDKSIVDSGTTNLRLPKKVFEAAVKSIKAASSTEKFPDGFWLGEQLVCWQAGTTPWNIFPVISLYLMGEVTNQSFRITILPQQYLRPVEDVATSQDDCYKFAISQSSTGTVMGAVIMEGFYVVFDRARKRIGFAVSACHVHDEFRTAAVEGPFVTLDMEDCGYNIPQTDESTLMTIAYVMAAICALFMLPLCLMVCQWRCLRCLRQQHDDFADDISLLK

| Structure (SMILES) | IC50 |
| --- | --- |
| NC1=N[C@](CF)(c2cc(NC(=O)c3ccc(Cl)cn3)ccc2F)C[C@@H](C(F)(F)F)O1 [Example 4, N-(3-((4S,6S)-2-amino-4-(fluoromethyl)-6-(trifluoromethyl)-5,6-dihydro-4H-1,3-oxazin-4-yl)-4-fluorophenyl)-5-chloropicolinamide] | 22 nM |
| C[C@@]1(c2cc(NC(=O)c3ncc(Cl)cc3Cl)ccc2F)C[C@@H](C(F)(F)F)OC(N)=N1 [Example 10, N-(3-((4S,6S)-2-Amino-4-methyl-6-(trifluoromethyl)-5,6-dihydro-4H-1,3-oxazin-4-yl)-4-fluorophenyl)-3,5-chloropicolinamide] | 6 nM |
| Cc1cc(C#N)cnc1C(=O)Nc1ccc(F)c([C@]2(C)C[C@@H](C(F)(F)F)OC(N)=N2)c1 [Example 12, N-(3-((4S,6S)-2-Amino-4-methyl-6-(trifluoromethyl)-5,6-dihydro-4H-1,3-oxazin-4-yl)-4-fluorophenyl)-5-cyano-3-methylpicolinamide] | 3 nM |
| C[C@@]1(c2cc(NC(=O)c3ncc(C#N)cc3Cl)ccc2F)C[C@@H](C(F)(F)F)OC(N)=N1 [Example 13, N-(3-((4S,6S)-2-Amino-4-methyl-6-(trifluoromethyl)-5,6-dihydro-4H-1,3-oxazin-4-yl)-4-fluorophenyl)-3-chloro-5-cyanopicolinamide] | 13 nM |
| C[C@@]1(c2cc(NC(=O)c3ccc(OC(F)F)cn3)ccc2F)C[C@@H](C(F)(F)F)OC(N)=N1 [Example 15, N-(3-((4S,6S)-2-Amino-4-methyl-6-(trifluoromethyl)-5,6-dihydro-4H-1,3-oxazin-4-yl)-4-fluorophenyl)-5-(difluoromethoxy)picolinamide] | 1 nM |
| C[C@@]1(c2cc(NC(=O)c3ccc(OC(F)(F)F)cn3)ccc2F)C[C@@H](C(F)(F)F)OC(N)=N1 [Example 16, N-(3-((4S,6S)-2-Amino-4-methyl-6-(trifluoromethyl)-5,6-dihydro-4H-1,3-oxazin-4-yl)-4-fluorophenyl)-5-(trifluoromethoxy)picolinamide] | 1 nM |
| C[C@@]1(c2cc(NC(=O)c3ccc(C(F)F)cn3)ccc2F)C[C@@H](C(F)(F)F)OC(N)=N1 [Example 17, N-(3-((4S,6S)-2-Amino-4-methyl-6-(trifluoromethyl)-5,6-dihydro-4H-1,3-oxazin-4-yl)-4-fluorophenyl)-5-(difluoromethyl)picolinamide] | 2 nM |
| C[C@@]1(c2cc(NC(=O)c3ccc(OCC(F)(F)F)cn3)ccc2F)C[C@@H](C(F)(F)F)OC(N)=N1 [Example 18, N-(3-((4S,6S)-2-Amino-4-methyl-6-(trifluoromethyl)-5,6-dihydro-4H-1,3-oxazin-4-yl)-4-fluorophenyl)-5-(2,2,2-trifluoroethoxy)picolinamide] | 8 nM |
| C[C@@]1(c2cc(NC(=O)c3nn(C(F)F)cc3Cl)ccc2F)C[C@@H](C(F)(F)F)OC(N)=N1 [Example 26, N-(3-((4S,6S)-2-Amino-4-methyl-6-(trifluoromethyl)-5,6-dihydro-4H-1,3-oxazin-4-yl)-4-fluorophenyl)-4-chloro-1-(difluoromethyl)-1H-pyrazole-3-carboxamide] | 1 nM |
| Cc1cc(C#N)cnc1C(=O)Nc1ccc(F)c([C@]2(CF)C[C@@H](C(F)(F)F)OC(N)=N2)c1 [Example 27, N-(3-((4S,6S)-2-Amino-4-(fluoromethyl)-6-(trifluoromethyl)-5,6-dihydro-4H-1,3-oxazin-4-yl)-4-fluorophenyl)-5-cyano-3-methylpicolinamide] | 2 nM |
| N#Cc1cnc(C(=O)Nc2ccc(F)c([C@]3(CF)C[C@@H](C(F)(F)F)OC(N)=N3)c2)c(Cl)c1 [Example 28, N-(3-((4S,6S)-2-Amino-4-(fluoromethyl)-6-(trifluoromethyl)-5,6-dihydro-4H-1,3-oxazin-4-yl)-4-fluorophenyl)-3-chloro-5-cyanopicolinamide] | 11 nM |
| NC1=N[C@](CF)(c2cc(NC(=O)c3ccc(OC(F)F)cn3)ccc2F)C[C@@H](C(F)(F)F)O1 [Example 31, N-(3-((4S,6S)-2-Amino-4-(fluoromethyl)-6-(trifluoromethyl)-5,6-dihydro-4H-1,3-oxazin-4-yl)-4-fluorophenyl)-5-(difluoromethoxy)picolinamide] | 7 nM |
| NC1=N[C@](CF)(c2cc(NC(=O)c3ccc(OC(F)(F)F)cn3)ccc2F)C[C@@H](C(F)(F)F)O1 [Example 32, N-(3-((4S,6S)-2-Amino-4-(fluoromethyl)-6-(trifluoromethyl)-5,6-dihydro-4H-1,3-oxazin-4-yl)-4-fluorophenyl)-5-(trifluoromethoxy)picolinamide] | 7 nM |
| NC1=N[C@](CF)(c2cc(NC(=O)c3ccc(C(F)F)cn3)ccc2F)C[C@@H](C(F)(F)F)O1 [Example 33, N-(3-((4S,6S)-2-Amino-4-(fluoromethyl)-6-(trifluoromethyl)-5,6-dihydro-4H-1,3-oxazin-4-yl)-4-fluorophenyl)-5-(difluoromethyl)picolinamide] | 10 nM |
| NC1=N[C@](CF)(c2cc(NC(=O)c3ccc(OCC(F)(F)F)cn3)ccc2F)C[C@@H](C(F)(F)F)O1 [Example 34, N-(3-((4S,6S)-2-Amino-4-(fluoromethyl)-6-(trifluoromethyl)-5,6-dihydro-4H-1,3-oxazin-4-yl)-4-fluorophenyl)-5-(2,2,2-trifluoroethoxy)picolinamide] | 71 nM |
| NC1=N[C@](CF)(c2cc(NC(=O)c3cnc(CF)cn3)ccc2F)C[C@@H](C(F)(F)F)O1 [Example 37, N-(3-((4S,6S)-2-Amino-4-(fluoromethyl)-6-(trifluoromethyl)-5,6-dihydro-4H-1,3-oxazin-4-yl)-4-fluorophenyl)-5-(fluoromethyl)ypyrazine-2-carboxamide] | 53 nM |

More lines, now with the values ahead:

| IC50 | Structure (SMILES) |
| --- | --- |
| 5 nM | COc1cnc(C(=O)Nc2ccc(F)c([C@]3(C)C[C@@H](C(F)(F)F)OC(N)=N3)c2)cn1 [Example 5, N-(3-((4S,6S)-2-amino-4-methyl-6-(trifluoromethyl)-5,6-dihydro-4H-1,3-oxazin-4-yl)-4-fluorophenyl)-5-methoxypyrazine-2-carboxamide] |
| 24 nM | C[C@@]1(c2cc(NC(=O)c3cnc(OCC(F)F)cn3)ccc2F)C[C@@H](C(F)(F)F)OC(N)=N1 [Example 6, N-(3-((4S,6S)-2-amino-4-methyl-6-(trifluoromethyl)-5,6-dihydro-4H-1,3-oxazin-4-yl)-4-fluorophenyl)-5-(2,2-difluoroethoxyl)pyrazine-2-carboxamide] |
| 15 nM | C[C@@]1(c2cc(NC(=O)c3cnc(OCC(F)(F)F)cn3)ccc2F)C[C@@H](C(F)(F)F)OC(N)=N1 [Example 7, N-(3-((4S,6S)-2-amino-4-methyl-6-(trifluoromethyl)-5,6-dihydro-4H-1,3-oxazin-4-yl)-4-fluorophenyl)-5-(2,2,2-trifluoroethoxyl)pyrazine-2-carboxamide] |
| 710 nM | C[C@@]1(c2cc(NC(=O)c3ccc(Cl)cn3)ccc2F)C[C@H](C(F)(F)F)OC(N)=N1 [Example 9, N-(3-((4S,6R)-2-Amino-4-methyl-6-(trifluoromethyl)-5,6-dihydro-4H-1,3-oxazin-4-yl)-4-fluorophenyl)-5-chloropicolinamide] |
| 2 nM | COc1ccc(C(=O)Nc2ccc(F)c([C@]3(C)C[C@@H](C(F)(F)F)OC(N)=N3)c2)nc1 [Example 14, N-(3-((4S,6S)-2-Amino-4-methyl-6-(trifluoromethyl)-5,6-dihydro-4H-1,3-oxazin-4-yl)-4-fluorophenyl)-5-methoxypicolinamide] |
| 6 nM | C[C@@]1(c2cc(NC(=O)c3cnc(CF)cn3)ccc2F)C[C@@H](C(F)(F)F)OC(N)=N1 [Example 19, N-(3-((4S,6S)-2-Amino-4-methyl-6-(trifluoromethyl)-5,6-dihydro-4H-1,3-oxazin-4-yl)-4-fluorophenyl)-5-(fluoromethyl)pyrazine-2-carboxamide] |
| 5 nM | C[C@@]1(c2cc(NC(=O)c3cnc(C(F)F)cn3)ccc2F)C[C@@H](C(F)(F)F)OC(N)=N1 [Example 20, N-(3-((4S,6S)-2-Amino-4-methyl-6-(trifluoromethyl)-5,6-dihydro-4H-1,3-oxazin-4-yl)-4-fluorophenyl)-5-(difluoromethyl)pyrazine-2-carboxamide] |
| 59 nM | Cc1cnc(C(=O)Nc2ccc(F)c([C@]3(C)C[C@@H](C(F)(F)F)OC(N)=N3)c2)cn1 [Example 21, N-(3-((4S,6S)-2-Amino-4-methyl-6-(trifluoromethyl)-5,6-dihydro-4H-1,3-oxazin-4-yl)-4-fluorophenyl)-5-methylpyrazine-2-carboxamide] |
| 1 nM | C[C@@]1(c2cc(NC(=O)c3cnc(OCF)cn3)ccc2F)C[C@@H](C(F)(F)F)OC(N)=N1 [Example 23, N-(3-((4S,6S)-2-Amino-4-methyl-6-(trifluoromethyl)-5,6-dihydro-4H-1,3-oxazin-4-yl)-4-fluorophenyl)-5-(fluoromethoxy)pyrazine-2-carboxamide] |
| 3 nM | C[C@@]1(c2cc(NC(=O)c3cnc(OC(F)F)cn3)ccc2F)C[C@@H](C(F)(F)F)OC(N)=N1 [Example 24, N-(3-((4S,6S)-2-Amino-4-methyl-6-(trifluoromethyl)-5,6-dihydro-4H-1,3-oxazin-4-yl)-4-fluorophenyl)-5-(difluoromethoxy)pyrazine-2-carboxamide] |
| 0.8 nM | C[C@@]1(c2cc(NC(=O)c3coc(CF)n3)ccc2F)C[C@@H](C(F)(F)F)OC(N)=N1 [Example 25, N-(3-((4S,6S)-2-Amino-4-methyl-6-(trifluoromethyl)-5,6-dihydro-4H-1,3-oxazin-4-yl)-4-fluorophenyl)-2-(fluoromethyl)oxazole-4-carboxamide] |
